Here are results for one compound from ChEMBL document CHEMBL5252515, “Discovery of 6-Amino-2-{[(1S)-1-methylbutyl]oxy}-9-[5-(1-piperidinyl)pentyl]-7,9-dihydro-8H-purin-8-one (GSK2245035), a Highly Potent and Selective Intranasal Toll-Like Receptor 7 Agonist for the Treatment of Asthma” (J Med Chem, 2016).

Data set [1] can be described thus: Selectivity ratio of pEC50 for agonist activity at TLR7 in human whole blood to pEC50 for agonist activity at TLR7 in BALB/c mouse splenocytes. Format: cell-based.
For data set [2], the system named is Mus musculus. Nature of the data set: Increase in IP-10 level in intranasally dosed BALB/c mouse nasal lavage after 6 hrs. Format: functional, organism-based.
The subject of data set [3] is Mus musculus. Nature of the data set: Increase in IFN-alpha level in intranasally dosed BALB/c mouse nasal lavage after 6 hrs. The format is functional, organism-based.
Data set [4] addresses T1, Toll-like receptor 7 (Macaca fascicularis) (UniProt B3Y652).
T1 sequence (whole entry): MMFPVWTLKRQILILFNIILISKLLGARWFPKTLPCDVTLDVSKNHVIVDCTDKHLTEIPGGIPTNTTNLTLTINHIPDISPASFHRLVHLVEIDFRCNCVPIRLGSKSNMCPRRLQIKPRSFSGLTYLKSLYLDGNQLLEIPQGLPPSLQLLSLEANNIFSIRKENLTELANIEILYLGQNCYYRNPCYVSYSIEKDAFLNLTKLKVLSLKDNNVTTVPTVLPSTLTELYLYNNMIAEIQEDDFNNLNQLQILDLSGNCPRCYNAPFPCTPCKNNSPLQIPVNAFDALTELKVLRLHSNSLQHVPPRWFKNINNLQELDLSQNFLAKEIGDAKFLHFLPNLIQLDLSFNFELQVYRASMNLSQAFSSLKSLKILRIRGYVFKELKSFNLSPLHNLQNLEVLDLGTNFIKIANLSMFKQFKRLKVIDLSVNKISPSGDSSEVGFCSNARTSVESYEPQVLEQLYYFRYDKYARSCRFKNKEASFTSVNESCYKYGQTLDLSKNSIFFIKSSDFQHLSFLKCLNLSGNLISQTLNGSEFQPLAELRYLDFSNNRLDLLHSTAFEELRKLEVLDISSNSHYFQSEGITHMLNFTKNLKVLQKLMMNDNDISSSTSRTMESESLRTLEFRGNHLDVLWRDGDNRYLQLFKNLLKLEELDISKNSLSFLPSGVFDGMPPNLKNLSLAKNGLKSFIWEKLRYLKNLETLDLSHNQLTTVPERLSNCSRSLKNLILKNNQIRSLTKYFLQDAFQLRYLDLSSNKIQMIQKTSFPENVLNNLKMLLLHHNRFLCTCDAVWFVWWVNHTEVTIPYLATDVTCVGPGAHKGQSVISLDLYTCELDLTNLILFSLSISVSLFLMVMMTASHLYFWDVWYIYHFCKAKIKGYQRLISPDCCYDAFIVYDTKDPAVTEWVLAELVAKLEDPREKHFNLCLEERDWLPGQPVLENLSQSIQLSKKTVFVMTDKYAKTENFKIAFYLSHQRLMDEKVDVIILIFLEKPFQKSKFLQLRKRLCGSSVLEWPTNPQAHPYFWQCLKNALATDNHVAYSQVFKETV
Kind of data set: In vivo target occupancy at TLR7 in cynomolgus monkey assessed as fold increase in GBP1 mRNA expression in nasal scrape at 3 ng/kg administered intranasally incubated for 24 hrs by TaqMan analysis (reference value: 2.4). Format: functional.

The target in data set [5] is T1, Toll-like receptor 7 (Macaca fascicularis). Kind of data set: In vivo target occupancy at TLR7 in cynomolgus monkey assessed as fold increase in CXCL10 mRNA expression in nasal scrape at 3 ng/kg administered intranasally incubated for 24 hrs by TaqMan analysis (reference value: 1.6). The format is functional. On the technique in general: Real-time PCR tracks product formation cycle by cycle.

The target is the same in data set [6]. Nature of the data set: In vivo target occupancy at TLR7 in cynomolgus monkey assessed as fold increase in IFIT2 mRNA expression in nasal scrape at 30 ng/kg administered intranasally incubated for 24 hrs by TaqMan analysis (reference value: 2.1). Format: functional.
Data set [7] shares this target. Kind of data set: In vivo target occupancy at TLR7 in cynomolgus monkey assessed as fold increase in CXCL10 mRNA expression in nasal scrape at 30 ng/kg administered intranasally incubated for 24 hrs by TaqMan analysis (reference value: 1.6). Format: functional.
The target is the same in data set [8]. Kind of data set: In vivo target occupancy at TLR7 in cynomolgus monkey assessed as fold increase in OAS1 mRNA expression in nasal scrape at 30 ng/kg administered intranasally incubated for 24 hrs by TaqMan analysis (reference value: 1.2). The format is functional.
The nature of data set [9]: Oral bioavailability in rat. Format: ADME, organism-based. Conditions: in vivo.
A short description of data set [10]: Tmax in rat after intranasal administration. Format: ADME. Conditions: in vivo, inhaled or intranasal.
Data set [11] is described as follows: Toxicity in male rat assessed as NOAEL after 14 days. Conditions: in vivo, time 14 day.
The nature of data set [12]: Toxicity in female rat assessed as NOAEL after 14 days. The following applies: in vivo, time 14 day.
Data set [13] is described as follows: Toxicity in monkey assessed as NOAEL after 8 weeks. Further details: species or system Macaca mulatta. Conditions: rhesus monkey, in vivo, 1344 h.
Data set [14] in a line: Ocular toxicity in monkey at 1000 ug/ml post single dose administration after 48 hrs. On the set-up: species or system Macaca mulatta. Conditions: rhesus monkey, in vivo, dose 1000 µg/ml.
Data set [15] addresses Toll-like receptor 3 (Homo sapiens) (UniProt O15455). Nature of the data set: Agonist activity at TLR3 (unknown origin) expressed in HEK cells upto 50 uM by luciferase reporter assay. The format is cell-based. (In general: In a reporter assay the amount or activity of a reporter protein is the signal.)
Data set [16] has as its system PBMC. Kind of data set: Immunomodulatory activity in human PBMC assessed as IL-10 production incubated for 6 days in presence of allergen house dust mite. The format is functional, cell-based. The following applies: time 6.0 day.
The subject of data set [17] is PBMC. Kind of data set: Immunomodulatory activity in human PBMC assessed as IFNalpha production incubated for 6 days in presence of allergen house dust mite. The format is functional, cell-based. The following applies: time 6.0 day.

Activity calls are given as the source filed them. The calls are words filed in the database; no cut-off is given here.

What is called bioavailability is the share of a dose that reaches the circulation, judged against a reference dose that is usually intravenous. The term Tmax denotes the time at which the peak concentration occurs. By NOAEL is commonly meant the highest dose or exposure tested at which no adverse effect was seen.

Chain of Toll-like receptor 3 (Homo sapiens) (O15455 whole entry): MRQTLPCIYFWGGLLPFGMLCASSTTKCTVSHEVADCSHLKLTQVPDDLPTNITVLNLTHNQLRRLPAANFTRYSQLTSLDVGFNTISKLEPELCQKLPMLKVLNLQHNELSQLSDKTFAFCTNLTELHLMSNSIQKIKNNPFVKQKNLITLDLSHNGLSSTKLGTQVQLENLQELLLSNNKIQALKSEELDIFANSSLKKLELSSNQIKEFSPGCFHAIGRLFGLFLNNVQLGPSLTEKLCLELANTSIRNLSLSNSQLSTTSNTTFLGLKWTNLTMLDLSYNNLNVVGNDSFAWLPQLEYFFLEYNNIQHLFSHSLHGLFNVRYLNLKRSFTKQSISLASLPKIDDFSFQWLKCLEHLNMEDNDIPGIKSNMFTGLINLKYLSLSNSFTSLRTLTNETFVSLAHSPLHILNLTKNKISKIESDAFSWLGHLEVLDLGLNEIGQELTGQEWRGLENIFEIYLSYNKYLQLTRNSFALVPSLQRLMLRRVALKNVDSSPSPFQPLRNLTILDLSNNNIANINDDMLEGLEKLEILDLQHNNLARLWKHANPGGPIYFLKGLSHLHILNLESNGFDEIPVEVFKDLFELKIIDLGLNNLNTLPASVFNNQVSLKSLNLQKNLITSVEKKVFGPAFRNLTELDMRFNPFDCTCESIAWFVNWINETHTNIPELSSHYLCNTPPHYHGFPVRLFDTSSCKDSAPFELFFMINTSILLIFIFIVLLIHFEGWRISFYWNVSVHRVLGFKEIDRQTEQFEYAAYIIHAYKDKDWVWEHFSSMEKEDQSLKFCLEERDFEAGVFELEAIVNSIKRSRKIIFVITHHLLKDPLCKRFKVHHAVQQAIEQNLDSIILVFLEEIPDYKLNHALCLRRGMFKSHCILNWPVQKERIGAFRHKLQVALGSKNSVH

As for `CCC[C@H](C)Oc1nc(N)c2[nH]c(=O)n(CCCCCN3CCCCC3)c2n1` [GSK-2245035], the Selectivity ratio in [1] worked out at 10. The result in data set [2], in [16] and in data set [17] was Active. Also, the result in [3] and in [15] was inactive. The fold change (FC) in [4] was determined as 68.5; in data set [5], 230; in data set [6], 124; in data set [7], 638; in data set [8], 53.7. For the same compound, in data set [9], the bioavailability was determined as 1%. Further, in [10], the Tmax was at most 5 min. The NOAEL at 336 h in data set [11] stood at 0.453 mg/kg/day; in data set [12] it was 0.772 mg/kg/day. Also, in data set [13], the NOAEL came out at 35.9 ng/kg. Moreover, the Activity entry in data set [14] is on record as “Toxic”.
